In PubChem BioAssay (NCI):
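Five compound concentrations were applied to cells in 96-well plates for 48 hours; endpoints were derived by simple linear interpolation of the resulting dose-response curve. The concentration for 50% growth inhibition is given as GI50. TGI denotes the concentration required for complete inhibition of growth.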

Key:
Assay in all cases: inhibition of tumour cell growth, NCI panel, 48 h
786-0 renal = test system: 786-0 renal
UACC-257 melanoma = test system: UACC-257 melanoma
SF-295 CNS = test system: SF-295 CNS
MOLT-4 leukemia = test system: MOLT-4 leukemia
NCI-H23 lung = test system: NCI-H23 lung
COLO 205 colon = test system: COLO 205 colon
HOP-18 NSCLC = test system: HOP-18 NSCLC
IGROV1 ovarian = test system: IGROV1 ovarian
SN12C renal = test system: SN12C renal
ACHN renal = test system: ACHN renal

| SMILES | TGI (786-0 renal) [µM] | TGI (UACC-257 melanoma) [µM] | TGI (SF-295 CNS) [µM] | TGI (MOLT-4 leukemia) [µM] | TGI (NCI-H23 lung) [µM] | TGI (COLO 205 colon) [µM] | TGI (HOP-18 NSCLC) [µM] | TGI (IGROV1 ovarian) [µM] | TGI (SN12C renal) [µM] | TGI (ACHN renal) [µM] | GI50 (786-0 renal) [µM] | GI50 (ACHN renal) [µM] | GI50 (UACC-257 melanoma) [µM] | GI50 (SF-295 CNS) [µM] | GI50 (MOLT-4 leukemia) [µM] | GI50 (COLO 205 colon) [µM] | GI50 (HOP-18 NSCLC) [µM] | GI50 (IGROV1 ovarian) [µM] | GI50 (SN12C renal) [µM] |
| --- | --- | --- | --- | --- | --- | --- | --- | --- | --- | --- | --- | --- | --- | --- | --- | --- | --- | --- | --- |
| FC1OC2OC1C(OCc1ccccc1)C(OCc1ccccc1)C2OCc1ccccc1 (centres undefined) | > 100 | > 100 | > 100 | 67.4 | > 100 | > 100 | 96.4 | > 100 | > 100 | – | – | – | – | – | – | – | – | – | – |
| COc1cc2cc3c4c(cc(OC)c(OC)c4c2cc1OC)CCN3C(=O)CCC(=O)NCCCN(C)C | > 100 | > 100 | > 100 | > 100 | > 100 | > 100 | > 100 | > 100 | > 100 | > 100 | – | – | – | – | – | – | – | – | – |
| N[C@@H]1CCCC[C@@H]1N.O=P([O-])([O-])CN(CP(=O)([O-])[O-])CP(=O)([O-])[O-].[Pt+2] | > 100 | > 100 | > 100 | > 100 | – | > 100 | > 100 | > 100 | > 100 | > 100 | > 100 | > 100 | > 100 | > 100 | > 100 | > 100 | > 100 | > 100 | > 100 |
| COc1ccc(S(=O)(=O)N(C)CC(=O)O)cc1 | > 100 | > 100 | > 100 | > 100 | > 100 | > 100 | > 100 | > 100 | > 100 | > 100 | – | – | – | – | – | – | – | – | – |
| COc1nc(NC2OC(COC(C)=O)C(OC(C)=O)C(OC(C)=O)C2OC(C)=O)c(-c2csc(N)n2)c(=O)n1C (centres undefined) | 54.6 | > 100 | > 100 | > 100 | > 100 | > 100 | > 100 | > 100 | > 100 | > 100 | – | – | – | – | – | – | – | – | – |
| CC1CC[C@]2(C(=O)O)CCC3(C)C(=CCC4[C@@]5(C)CC[C@H](OS(=O)(=O)c6ccccc6)C(C)(C)C5CC[C@]43C)[C@@H]2[C@H]1C (some centres undefined) | > 100 | > 100 | > 100 | > 100 | > 100 | > 100 | > 100 | > 100 | > 100 | > 100 | – | – | – | – | – | – | – | – | – |
| C[C@]12CC[C@H](OC3CCCCO3)CC1=CC[C@@H]1C2CC[C@]2(C)/C(=N/O)CCC12 (some centres undefined) | 55.8 | 79.8 | 34.9 | 48.9 | 39.1 | – | 30.5 | > 100 | 31.5 | 54.3 | – | – | – | – | – | – | – | – | – |
| COc1ccc(OC)c2c3c(ccc12)C(c1ccccc1)OC3=O (centres undefined) | > 100 | > 100 | > 100 | 99.7 | > 100 | > 100 | > 100 | > 100 | > 100 | > 100 | – | – | – | – | – | – | – | – | – |
| C[C@@H]1C[C@]2(C[C@@H](C)C3[C@@H](CC4(C)[C@@H]5CCC6C(C)(C)OC(=O)C=C[C@]67C[C@@]5(CC[C@]34C)OO7)O2)OC1=O (some centres undefined) | > 100 | > 100 | > 100 | – | > 100 | > 100 | > 100 | > 100 | > 100 | > 100 | – | – | – | – | – | – | – | – | – |
| COc1cccc(NC(=O)C(=O)C(C(C)=O)c2nc3ccc(Cl)cc3[nH]c2=O)c1 (centres undefined) | > 100 | > 100 | > 100 | > 100 | > 100 | > 100 | > 100 | > 100 | > 100 | > 100 | – | – | – | – | – | – | – | – | – |
| O=C(c1ccc(Cl)cc1)C1OC12C(=O)Nc1ccccc12 (centres undefined) | 26.9 | 27.8 | 33.7 | – | 32.9 | 8.53 | 27 | 39.1 | 19.3 | 28.5 | – | – | – | – | – | – | – | – | – |
| S=c1nc(-c2ccnc(-c3nc(=S)[nH][nH]3)c2)[nH][nH]1 | > 100 | > 100 | > 100 | > 100 | > 100 | > 100 | > 100 | > 100 | > 100 | > 100 | – | – | – | – | – | – | – | – | – |
| COc1ccc(CCc2cc(OC)c(OC)c(OC)c2)cc1 | 69.1 | 47.7 | 1.46 | 6.26 | 26.9 | 0.189 | > 100 | > 100 | > 91.2 | 76.9 | – | – | – | – | – | – | – | – | – |
| C/C(CC(=O)N(C(C)C)C(C)C)=N\NC(=O)c1ccncc1 | > 100 | > 100 | > 100 | > 100 | > 100 | > 100 | > 100 | > 100 | > 100 | > 100 | – | – | – | – | – | – | – | – | – |
| COc1ccc(CCN=C2CCC(C(=O)NCCc3ccc(OC)c(OC)c3)N2)cc1OC (centres undefined) | > 100 | > 100 | > 100 | > 100 | > 100 | > 100 | > 100 | > 100 | > 100 | > 100 | – | – | – | – | – | – | – | – | – |
